In patent publication US20090098589A1 (priority 2006, published 2009):

Assays:
Format in all cases: biochemical
all tested phytases = experiment: Phosphate release from substrate, summary for all tested phytases; settings: compared with fructose 6-phosphate
Experimental: (§1) Enzymatic assays were carried out in microtitre plates in 100 μl of reaction mixture. The reaction mixture for acid phytases and phosphatases included: 10 mM of substrate in 200 mM sodium acetate buffer, pH 5.5 containing 0.8 mM CaCl2. For alkaline phytases and phosphatases the same conditions were used except sodium acetate buffer was replaced with 200 mM Tris*HCl buffer, pH 7.5. The reactions were allowed to proceed for 1 h at 37° C. after which time the released phosphate was measured by a modification of a known procedure (Heinonen J. K., Lahti R. J. Anal Biochem. 113 (2), 313-317 (1981)). Briefly, 200 pLI of a freshly prepared AMM solution ([…], 15 mM ammonium molybdate and acetone—1:1:2) was added to the 100 μl reaction mixture in each microtitre plate well. The absorbance at 390 nm was measured not earlier than 10 min and not later than 30 min after addition of the AMM reagent. The amount of phosphate was determined by building a calibration curve with phosphate solutions of known concentrations.
(§2) Both phytases and phosphatases catalyse the hydrolysis of phosphoesters. Thus, the difference between these two groups of enzymes is quantitative rather than qualitative and can be defined as the relative efficiency in hydrolysis of phytate and simple monophosphoesters such as e.g. glucose 6-phosphate or fructose 6-phosphate. […]

Potato acid phosphatase = experiment: Phosphate release from substrate by enzyme, microtitre plate, molybdate detection; settings: 10 mM substrate, pH 5.5, 1 h, 37° C.
Experimental: as §1
(§3) Both phytases and phosphatases catalyse the hydrolysis of phosphoesters. Thus, the difference between these two groups of enzymes is quantitative rather than qualitative and can be defined as the relative efficiency in hydrolysis of phytate and simple monophosphoesters such as e.g. glucose 6-phosphate or fructose 6-phosphate. Phosphatases tend to be relatively inefficient in hydrolysing phytate, and, conversely, most phytases hydrolyse mono-substituted sugar phosphates inefficiently. To test whether polyphosphorylated polyhydroxybenzenes can be used as mimics of phytate we have tested phosphate release from hexaphospho-benzenehexaol and fructose 6-phosphate by several different phytases and phosphatases. Phytases from Aspergillus niger (Natuphos^R), Escherichia coli (Phyzyme XP^R) and Peniophora lycii (Ronozyme^R) as well as potato acid phosphatase were assayed at pH 5.5 while alkaline bacterial phosphatase calf intestinal phosphatase and shrimp phosphatase were assayed at pH 7.5.

[1] = test system: Calf intestine phosphatase; experiment: as above; settings: 10 mM substrate, pH 7.5, 1 h, 37° C.
Experimental: as §1, §3

Shrimp phosphatase = experiment: as above; settings: 10 mM substrate, pH 7.5, 1 h, 37° C.
Experimental: as §1, §3

[2] = biological target: Bacterial alkaline phosphatase (Escherichia coli, UniProt P00634); experiment: as above; settings: 10 mM substrate, pH 7.5, 1 h, 37° C.
Experimental: as §1, §3

[3] = test system: Peniophora lycii phytase (Ronozyme^R); experiment: as above; settings: 10 mM substrate, pH 5.5, 1 h, 37° C.
Experimental: as §1, §3

[4] = biological target: T1, E. coil phytase (Phyzyme XP^R) (Escherichia coli, UniProt P07102); experiment: as above; settings: 10 mM substrate, pH 5.5, 1 h, 37° C.
T1 construct: purchased
Experimental: as §1, §3

[5] = biological target: T2, A. niger phytase (Natuphos^R) (Aspergillus niger, UniProt P34752); experiment: as above; settings: 10 mM substrate, pH 5.5, 1 h, 37° C.
T2 construct: purchased
Experimental: as §1, §3

typical phosphatases = experiment: Phosphate release from substrate, summary for typical phosphatases; settings: all tested typical phosphatases, compared with fructose 6-phosphate
Experimental: as §1, §2

T2 sequence (P34752 24-467): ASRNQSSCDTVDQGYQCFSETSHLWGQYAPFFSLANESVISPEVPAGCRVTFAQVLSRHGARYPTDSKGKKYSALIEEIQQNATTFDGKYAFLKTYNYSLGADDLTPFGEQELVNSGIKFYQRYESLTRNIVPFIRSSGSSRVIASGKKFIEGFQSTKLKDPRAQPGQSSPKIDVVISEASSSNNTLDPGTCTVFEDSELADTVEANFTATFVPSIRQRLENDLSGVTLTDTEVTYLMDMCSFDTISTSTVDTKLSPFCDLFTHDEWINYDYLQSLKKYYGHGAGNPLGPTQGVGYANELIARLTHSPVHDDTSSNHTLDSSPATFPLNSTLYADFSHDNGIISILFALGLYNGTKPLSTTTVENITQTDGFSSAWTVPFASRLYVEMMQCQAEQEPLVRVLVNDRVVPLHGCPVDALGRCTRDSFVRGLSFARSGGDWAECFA
T1 sequence (P07102 23-432): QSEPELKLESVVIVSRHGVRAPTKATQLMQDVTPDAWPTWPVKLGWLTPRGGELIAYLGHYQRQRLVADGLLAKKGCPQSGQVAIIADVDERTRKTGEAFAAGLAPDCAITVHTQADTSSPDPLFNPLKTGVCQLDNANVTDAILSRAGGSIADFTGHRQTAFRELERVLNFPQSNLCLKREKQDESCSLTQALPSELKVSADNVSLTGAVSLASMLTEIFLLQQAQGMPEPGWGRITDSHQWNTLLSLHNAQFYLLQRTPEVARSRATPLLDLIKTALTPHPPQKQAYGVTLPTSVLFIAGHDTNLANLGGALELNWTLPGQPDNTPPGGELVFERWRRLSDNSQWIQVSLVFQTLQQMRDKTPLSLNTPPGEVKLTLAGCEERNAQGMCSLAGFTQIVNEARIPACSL
Chain of Bacterial alkaline phosphatase (P00634 22-471): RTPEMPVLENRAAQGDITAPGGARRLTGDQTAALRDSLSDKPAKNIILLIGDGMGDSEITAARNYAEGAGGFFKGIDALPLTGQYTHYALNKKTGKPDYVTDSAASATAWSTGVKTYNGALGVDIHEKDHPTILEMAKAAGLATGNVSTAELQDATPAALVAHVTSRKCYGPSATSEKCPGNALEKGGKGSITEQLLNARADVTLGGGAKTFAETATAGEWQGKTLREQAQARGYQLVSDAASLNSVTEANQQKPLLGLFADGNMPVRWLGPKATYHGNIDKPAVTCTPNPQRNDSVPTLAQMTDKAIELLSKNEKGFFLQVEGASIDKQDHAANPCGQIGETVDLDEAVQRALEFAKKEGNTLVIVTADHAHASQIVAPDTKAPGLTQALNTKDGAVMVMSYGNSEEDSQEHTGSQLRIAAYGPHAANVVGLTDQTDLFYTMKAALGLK

For `O=P(O)(O)Oc1c(OP(=O)(O)O)c(OP(=O)(O)O)c(OP(=O)(O)O)c(OP(=O)(O)O)c1OP(=O)(O)O` [benzenehexaol hexaphosphate, Benzenehexaol hexaphosphate], the “Quality as substrate for all tested phytases (in words)” value (all tested phytases) was “much better substrate than fructose 6-phosphate”, the “Ratio of phosphate-releasing activities with the substrate and fructose 6-P” value (“Ratio … with the substrate and fructose 6-P” below) (Potato acid phosphatase) was 0.23 and the “Ratio … with the substrate and fructose 6-P” value [1] was 0.01. The “Ratio … with the substrate and fructose 6-P” value (Shrimp phosphatase) was 0.1, the “Ratio … with the substrate and fructose 6-P” value [2] was 0.01 and the “Ratio … with the substrate and fructose 6-P” value [3] was 2.7. For the same molecule, the “Ratio … with the substrate and fructose 6-P” value [4] was 122, the “Ratio … with the substrate and fructose 6-P” value [5] was 250 and the “Quality as substrate for typical phosphatases (in words)” value (typical phosphatases) was “the opposite is true”.
For `O=P(O)(O)Oc1cc(OP(=O)(O)O)cc(OP(=O)(O)O)c1`, the “Quality as substrate for all tested phytases (in words)” value (all tested phytases) was “good substrate”, the “Ratio … with the substrate and fructose 6-P” value (Potato acid phosphatase) was 3.9 and the “Ratio … with the substrate and fructose 6-P” value [1] was 1.0. The “Ratio … with the substrate and fructose 6-P” value (Shrimp phosphatase) was 3.8, the “Ratio … with the substrate and fructose 6-P” value [2] was 1.0 and the “Ratio … with the substrate and fructose 6-P” value [3] was 250. For the same molecule, the “Ratio … with the substrate and fructose 6-P” value [4] was 500, the “Ratio … with the substrate and fructose 6-P” value [5] was 280 and the “Quality as substrate for typical phosphatases (in words)” value (typical phosphatases) was “good substrate”.
